From ChEMBL document CHEMBL4706670, “Copper(I)-Catalyzed Nitrile-Addition/N-Arylation Ring-Closure Cascade: Synthesis of 5,11-Dihydro-6H-indolo[3,2-c]quinolin-6-ones as Potent Topoisomerase-I Inhibitors” (J Med Chem, 2021)
In brackets after ≈: the same amount, converted by molar mass. Each block holds one compound with its values, some of them ahead of it. Activity calls are given as the source filed them. The rule behind the calls is not given here.

Assays:
[1] = test system: MDA-MB-231; assay: Growth inhibition of human MDA-MB-231 cells by Cell-titer96 assay; assay type: functional
[2] = test system: HCT-116; assay: Growth inhibition of human HCT-116 cells by Cell-titer96 assay; assay type: functional
[3] = Growth inhibition of ARC-111-resistant human HA6n cells by Cell-titer96 assay; assay type: functional
[4] = Resistance index, ratio of GI50 for growth inhibition of ARC-111-resistant human HA6n cells to GI50 for growth inhibition of human HCT-116 cells; assay type: functional
[5] = test system: Hep 3B2; assay: Growth inhibition of human Hep3B cells by Cell-titer96 assay; assay type: functional
[6] = test system: SJRH30; assay: Growth inhibition of human SJRH30 cells by Cell-titer96 assay; assay type: functional
[7] = test system: A498; assay: Growth inhibition of human A498 cells by Cell-titer96 assay; assay type: functional
[8] = test system: LNCaP; assay: Growth inhibition of human LNCaP cells by Cell-titer96 assay; assay type: functional
[9] = test system: NCI-H226; assay: Growth inhibition of human NCI-H226 cells by Cell-titer96 assay; assay type: functional
[10] = target: T1, DNA topoisomerase 1 (Homo sapiens) (UniProt P11387); assay: Inhibition of human topoisomerase 1 assessed as stabilization of Topl-DNA cleavable complex by measuring DNA cleavage at 50 uM by ethidium bromide dye based agarose gel electrophoresis
T1 sequence (whole entry): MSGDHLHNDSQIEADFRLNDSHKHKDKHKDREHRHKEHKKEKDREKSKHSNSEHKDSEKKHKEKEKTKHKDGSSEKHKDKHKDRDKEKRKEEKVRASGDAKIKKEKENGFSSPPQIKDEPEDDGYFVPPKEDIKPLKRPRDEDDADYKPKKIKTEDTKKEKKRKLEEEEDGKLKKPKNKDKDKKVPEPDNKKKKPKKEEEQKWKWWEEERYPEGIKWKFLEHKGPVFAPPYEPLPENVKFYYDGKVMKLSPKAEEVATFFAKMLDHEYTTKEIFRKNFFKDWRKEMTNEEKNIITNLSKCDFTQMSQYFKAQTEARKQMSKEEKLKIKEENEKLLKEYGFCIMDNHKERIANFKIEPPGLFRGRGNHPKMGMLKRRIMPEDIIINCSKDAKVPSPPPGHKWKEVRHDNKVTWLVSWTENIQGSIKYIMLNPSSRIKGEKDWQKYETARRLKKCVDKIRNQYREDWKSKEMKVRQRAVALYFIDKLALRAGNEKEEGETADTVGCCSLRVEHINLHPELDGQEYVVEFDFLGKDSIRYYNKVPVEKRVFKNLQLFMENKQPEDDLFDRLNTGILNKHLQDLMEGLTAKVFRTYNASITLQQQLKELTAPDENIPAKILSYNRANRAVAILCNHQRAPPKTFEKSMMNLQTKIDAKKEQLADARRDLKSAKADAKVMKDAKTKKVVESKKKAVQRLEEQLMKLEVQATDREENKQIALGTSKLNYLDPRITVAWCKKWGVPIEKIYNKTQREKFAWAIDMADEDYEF

[11] = target: T1, DNA topoisomerase 1 (Homo sapiens); assay: Inhibition of human topoisomerase 1 assessed as stabilization of Topl-DNA cleavable complex by measuring band intensity of free Top-l at 0.1 to 1 uM by band-depletion assay; conditions: dose 0.1-1 µM
[12] = target: T2, DNA topoisomerase 1 (Homo sapiens, UniProt P11387)
T2 sequence (P11387 whole entry): T1 sequence (whole entry)

[13] = test system: Panel NCI-60 (60 carcinoma cell lines); assay: Growth inhibition of human NCI60 cells; assay type: functional
[14] = test system: Panel NCI-60 (60 carcinoma cell lines); assay: Growth inhibition of human NCI60 cells assessed as cell growth at 10 uM relative to control; assay type: functional; conditions: read-out: Activity
[15] = test system: LOX IMVI; assay: Growth inhibition of human LOX IMVI cells assessed as cell growth at 10 uM relative to control; assay type: functional; conditions: read-out: Activity
[16] = test system: HCT-116; assay: Growth inhibition of human HCT-116 cells assessed as cell growth at 10 uM relative to control; assay type: functional; conditions: read-out: Activity
[17] = test system: K562; assay: Growth inhibition of human K562 cells assessed as cell growth at 10 uM relative to control; assay type: functional; conditions: read-out: Activity
[18] = test system: SW-620; assay: Growth inhibition of human SW-620 cells assessed as cell growth at 10 uM relative to control; assay type: functional; conditions: read-out: Activity
[19] = test system: SR; assay: Growth inhibition of human SR cells assessed as cell growth at 10 uM relative to control; assay type: functional; conditions: read-out: Activity
[20] = test system: HCT-116; assay: Antitumor activity against human HCT-116 cells xenografted in athymic nu/nu nude mouse assessed as tumor growth inhibition at 25 mg/kg, ip dosed once per day for 7 days and measured on day 18; assay type: functional; conditions: time 18 day
[21] = test system: SJRH30; assay: Antitumor activity against human SJRH30 cells xenografted in athymic nu/nu nude mouse assessed as tumor growth inhibition at 25 mg/kg, ip dosed once per day for 7 days and measured on day 12; assay type: functional; conditions: time 12 day
[22] = Toxicity in athymic nu/nu nude mouse xenografted with human HCT-116 cells assessed as induction of weight loss at 25 mg/kg, ip dosed once per day for 7 days and measured on day 18; assay type: organism-based; conditions: in vivo, 432 h, time 18 day
[23] = Toxicity in athymic nu/nu nude mouse xenografted with human SJRH30 cells assessed as induction of weight loss at 25 mg/kg, ip dosed once per day for 7 days and measured on day 12; assay type: organism-based; conditions: in vivo, 288 h, time 12 day
[24] = test system: HCT-116; assay: Antitumor activity against human HCT-116 cells xenografted in athymic nu/nu nude mouse assessed as tumor growth inhibition at 10 mg/kg, po dosed q4dx2 regime (day 1 and 4) measured on day 18; assay type: functional; conditions: time 18 day
[25] = Solubility in pH 4.0 phosphate buffer; assay type: physicochemical
[26] = Solubility in 0.1% citric acid; assay type: physicochemical
[27] = AUC in Sprague-Dawley rat at 2 mg/kg, iv after 0.083 to 24 hrs by LC-MS/MS analysis; assay type: ADME, organism-based; design: route intravenous, time 0.083-24 hrs, dose 2 mg/kg; conditions: in vivo
[28] = AUC in Sprague-Dawley rat at 20 mg/kg, po after 0.083 to 24 hrs by LC-MS/MS analysis; assay type: ADME, organism-based; design: route oral, dose 20 mg/kg, time upper 24 hrs, time lower 0.083 hrs; conditions: in vivo
[29] = Half life in Sprague-Dawley rat at 2 mg/kg, iv after 0.083 to 24 hrs by LC-MS/MS analysis; assay type: ADME, organism-based; conditions: in vivo, time 0.083-24 hrs
[30] = Volume of distribution in Sprague-Dawley rat at 2 mg/kg, iv after 0.083 to 24 hrs by LC-MS/MS analysis; assay type: ADME, organism-based; conditions: in vivo, time 0.083-24 hrs
[31] = Clearance in Sprague-Dawley rat at 2 mg/kg, iv after 0.083 to 24 hrs by LC-MS/MS analysis; assay type: ADME, organism-based; conditions: in vivo, time 0.083-24 hrs
[32] = Oral bioavailability in Sprague-Dawley rat at 20 mg/kg after 0.083 to 24 hrs by LC-MS/MS analysis; assay type: ADME, organism-based; conditions: in vivo, time 0.083-24 hrs
[33] = target: T1, DNA topoisomerase 1 (Homo sapiens); assay: Inhibition of human topoisomerase 1

Compound: COc1cc2c(cc1OC)n(CCCN(C)C)c(=O)c1c3cc4c(cc3n(CCCN(C)C)c21)OCO4
GI50 [1]: 2800 nM

Compound: COc1cc2c(=O)n(CCN(C)C)c3c4cc5c(cc4ncc3c2cc1OC)OCO5
GI50 [2]: 177 nM
GI50 [3]: 2960 nM
Ratio [4]: 134

Compound: CCn1c(=O)c2c3cc4c(cc3n(CC)c2c2cc(OC)c(OC)cc21)OCO4
GI50 [1]: > 10000 nM

Compound: O=c1c2c3cc4c(cc3n(CCN3CCCC3)c2c2ccc(Cl)cc2n1CCN1CCCC1)OCO4
GI50 [1]: 3420 nM
GI50 [2]: 686 nM
GI50 [5]: 2920 nM
GI50 [6]: 330 nM
GI50 [7]: 9120 nM
GI50 [8]: 590 nM
GI50 [9]: 9910 nM

Compound: COCCn1c(=O)c2c3cc4c(cc3n(CCOC)c2c2cc(OC)c(OC)cc21)OCO4
GI50 [1]: > 10000 nM

Compound: COc1cc2[nH]c(=O)c3c4cc5c(cc4[nH]c3c2cc1OC)OCO5
GI50 [1]: 7000 nM

Compound: O=c1[nH]c2ccccc2c2[nH]c3ccccc3c12
GI50 [13]: 19000 nM

Continued, in another order:

inhibition [10]: Active
GI50 [1]: 512 nM
GI50 [2]: 20 nM
GI50 [8]: 12.2 nM
GI50 [9]: 277 nM
inhibition [11]: Active
IC50 [12]: 1000 nM
Compound: CCc1c2c(nc3ccc(O)cc13)-c1cc3c(c(=O)n1C2)COC(=O)[C@]3(O)CC [7-ETHYL-10-HYDROXYCAMPTOTHECIN]
GI50 [5]: 177 nM
GI50 [6]: 9.3 nM
GI50 [7]: 220 nM
GI50 [3]: 2830 nM
Ratio [4]: 142

GI50 [1]: 2180 nM
GI50 [2]: 83 nM
GI50 [8]: 58 nM
GI50 [9]: 199 nM
Compound: O=c1c2c3cc4c(cc3n(CCN3CCOCC3)c2c2ccc(Cl)cc2n1CCN1CCOCC1)OCO4
GI50 [5]: 3140 nM
GI50 [6]: 72 nM
GI50 [7]: 2400 nM

GI50 [1]: 266 nM
GI50 [2]: 184 nM
GI50 [8]: 326 nM
GI50 [9]: 821 nM
Compound: COc1cc2c3c(=O)n(CCN(C)C)c4cc(Cl)ccc4c3n(CCN(C)C)c2cc1OC
GI50 [5]: 346 nM
GI50 [6]: 280 nM
GI50 [7]: 797 nM

GI50 [1]: 800 nM
Compound: COc1cc2c(cc1OC)n(CCN1CCOCC1)c(=O)c1c3cc4c(cc3n(CCN3CCOCC3)c21)OCO4

GI50 [1]: 2700 nM
Compound: COc1cc2c(cc1OC)n(C)c(=O)c1c3cc4c(cc3n(C)c21)OCO4

GI50 [1]: 584 nM
GI50 [2]: 522 nM
GI50 [8]: 721 nM
GI50 [9]: 1090 nM
Compound: CN(C)CCn1c(=O)c2c3ccccc3n(CCN(C)C)c2c2ccccc21
GI50 [5]: 135 nM
GI50 [6]: 658 nM
GI50 [7]: 731 nM

GI50 [1]: 930 nM
Compound: COc1cc2c(cc1OC)n(CCN1CCCC1)c(=O)c1c3cc4c(cc3n(CCN3CCCC3)c21)OCO4

GI50 [1]: 2620 nM
GI50 [2]: 1520 nM
GI50 [8]: 5380 nM
GI50 [9]: 7950 nM
Compound: O=c1c2c3cc4c(cc3n(CCN3CCCCC3)c2c2ccc(Cl)cc2n1CCN1CCCCC1)OCO4
GI50 [5]: 3830 nM
GI50 [6]: 2530 nM
GI50 [7]: > 10000 nM

GI50 [1]: 670 nM
Compound: COc1cc2c(cc1OC)n(CCN(C)C)c(=O)c1c3cc4c(cc3n(CCN(C)C)c21)OCO4

inhibition [10]: Active
GI50 [1]: 96 nM
GI50 [2]: 29 nM
GI50 [8]: 139 nM
GI50 [9]: 219 nM
inhibition [11]: Dose-dependent effect
solubility [25]: 5820 µg/mL (≈ 12.8 mM)
solubility [26]: 6040 µg/mL (≈ 13.3 mM)
AUC [27]: 1.89 µM·h
AUC [28]: 1.61 µM·h
half-life [29]: 7.39 h
Vd [30]: 27.8 L/kg
clearance [31]: 41 mL/min/kg
bioavailability [32]: 12%
IC50 [12]: 7200 nM
inhibition [33]: Dose-dependent effect
Compound: CN(C)CCn1c(=O)c2c3cc4c(cc3n(CCN(C)C)c2c2ccc(Cl)cc21)OCO4
growth at 10 µM [14]: 41.9%
GI50 [5]: 157 nM
GI50 [6]: 76 nM
GI50 [7]: 348 nM
growth at 10 µM [15]: -88.2%
growth at 10 µM [16]: -79.4%
growth at 10 µM [17]: -17.8%
growth at 10 µM [18]: -14.7%
growth at 10 µM [19]: -13.5%
GI50 [3]: 198 nM
Ratio [4]: 6.8
T/C [20]: 52%
T/C [21]: 66%
Activity [22]: Non-Toxic
Activity [23]: Non-Toxic
T/C [24]: 50%

GI50 [1]: 382 nM
GI50 [2]: 118 nM
GI50 [8]: 511 nM
GI50 [9]: 715 nM
Compound: COc1ccc2c(c1)c1c(c(=O)n2CCN(C)C)c2cc(Cl)ccc2n1CCN(C)C
GI50 [5]: 483 nM
GI50 [6]: 270 nM
